Source: patent US20160150782A1, “USE OF SELECTED PYRIDONE CARBOXAMIDES OR SALTS THEREOF AS ACTIVE SUBSTANCES AGAINST ABIOTIC PLANT STRESS” (BAYER CROPSCIENCE AKTIENGESELLSCHAFT, priority 2013, published 2016)

Tests used:
Type in all cases: in vivo
Conditions in all cases: efficacy = reduction in damage intensity, spray WP, 600 l/ha water
[1] = system: Zea mays (corn); experiment: Drought stress test on sprayed greenhouse plants, visual damage scoring (Table 2); set-up: key: reduction in damage intensity, damage assessed in %
Protocol: (§1) Seeds of monocotyledonous and dicotyledonous crop plants are sown in sandy loam in plastic or wood-fiber pots, covered with soil or sand and cultivated in a greenhouse under good growth conditions. The test plants are treated at the early leaf stage (BBCH10-BBCH13). To assure uniform water supply before commencement of stress, the potted plants are supplied with water by dam irrigation prior to substance application. The inventive compounds, formulated in the form of wettable powders (WP), are sprayed onto the green parts of the plants as an aqueous suspension at an equivalent water application rate of 600 I/ha with addition of 0.2% wetting agent (e.g. agrotin). Substance application is followed immediately by stress treatment of the plants. For this purpose, the wood-fiber pots are transferred in plastic inserts in order to prevent them from subsequently drying out too quickly. Drought stress is induced by gradual drying out under the following conditions: “Day”: 14 hours with illumination at 26-30° C. “Night”: 10 hours without illumination at 18-20° C. The duration of the respective stress phases is guided mainly by the condition of the stressed control plants. […] The end of the stress phase is followed by an approx. 4-14-day recovery phase, during which the plants are once again kept under good growth conditions in a greenhouse. The duration of the recovery phase is guided mainly by when the trial plants have attained a state which enables visual scoring of potential effects, and is therefore variable. […] The damage intensity is at first assessed in percent.

[2] = system: Brassica napus; experiment: Drought stress test on sprayed greenhouse plants, visual damage scoring (Table 3); set-up: key: reduction in damage intensity, damage assessed in %
Protocol: as §1

[3] = system: Triticum aestivum; experiment: Drought stress test on sprayed greenhouse plants, visual damage scoring (Table 4)
Protocol: as §1

CCCNC(=O)c1cc(C)c(C)[nH]c1=O [compound 3]
E (ZEAMX) ([1]; dosage 250 g/ha): >5

Cc1cc(C(=O)NCC2CC2)c(=O)[nH]c1C [compound 13]
E (BRSNS) ([2]; dosage 250 g/ha): >5

CCC(C)NC(=O)c1cc(C)c(C)[nH]c1=O (centres unmarked) [compound 29]
E (BRSNS) ([2]; dosage 250 g/ha): >5

CCCC(C)NC(=O)c1cc(C)c(C)[nH]c1=O (centres unmarked) [compound 32, 5,6-Dimethyl-2-oxo-N-(pentan-2-yl)-1,2-dihydropyridine3-carboxamide]
E (BRSNS) ([2]; dosage 250 g/ha): >5

Cc1cc(C(=O)NC(C)CC(C)C)c(=O)[nH]c1C (centres unmarked) [compound 36]
E (ZEAMX) ([1]; dosage 250 g/ha): >5

COCCNC(=O)c1cc(C)c(C)[nH]c1=O [compound 46]
E (BRSNS) ([2]; dosage 250 g/ha): >5
E (ZEAMX) ([1]; dosage 25 g/ha): >5

COC(=O)CNC(=O)c1cc(C)c(C)[nH]c1=O [compound 59]
E (ZEAMX) ([1]; dosage 25 g/ha): >5

Cc1cc(C(=O)NCC(=O)O)c(=O)[nH]c1C(F)(F)F [compound 170]
E (ZEAMX) ([1]; dosage 250 g/ha): >5

CCOC(=O)C1CCCCN1C(=O)c1cc(C)c(C(F)(F)F)[nH]c1=O (centres unmarked) [compound 204]
E (BRSNS) ([2]; dosage 25 g/ha): >5

Cc1cc(C(=O)N(C)c2ccccc2)c(=O)[nH]c1C(F)(F)F [compound 219, N,5-Dimethyl-2-oxo-N-phenyl-6-(trifluoromethyl)-1,2-dihydropyridine-3-carboxamide]
E (ZEAMX) ([1]; dosage 250 g/ha): >5

CNC(=O)c1cc(C)c(C(F)(F)C(F)(F)F)[nH]c1=O [compound 221]
E (ZEAMX) ([1]; dosage 250 g/ha): >5

CCNC(=O)c1cc(C)c(C(F)(F)C(F)(F)F)[nH]c1=O [compound 222]
E (ZEAMX) ([1]; dosage 250 g/ha): >5

CCCNC(=O)c1cc(C)c(C(F)(F)C(F)(F)F)[nH]c1=O [compound 223]
E (ZEAMX) ([1]; dosage 25 g/ha): >5

Cc1cc(C(=O)NC2CC2)c(=O)[nH]c1C(F)(F)C(F)(F)F [compound 225]
E (BRSNS) ([2]; dosage 25 g/ha): >5

Cc1cc(C(=O)NCC2CC2)c(=O)[nH]c1C(F)(F)C(F)(F)F [compound 233]
E (BRSNS) ([2]; dosage 25 g/ha): >5

Cc1cc(C(=O)NCCC(C)C)c(=O)[nH]c1C(F)(F)C(F)(F)F [compound 243]
E (TRZAS) ([3]; dosage 250 g/ha): >5

C=C(C)CNC(=O)c1cc(C)c(C(F)(F)C(F)(F)F)[nH]c1=O [compound 247]
E (BRSNS) ([2]; dosage 25 g/ha): >5

Cc1cc(C(=O)NC(C)CC(C)C)c(=O)[nH]c1C(F)(F)C(F)(F)F (centres unmarked) [compound 256]
E (BRSNS) ([2]; dosage 25 g/ha): >5

Cc1cc(C(=O)NC(C)C(C)C)c(=O)[nH]c1C(F)(F)C(F)(F)F (centres unmarked) [compound 258]
E (BRSNS) ([2]; dosage 25 g/ha): >5

COCCNC(=O)c1cc(C)c(C(F)(F)C(F)(F)F)[nH]c1=O [compound 266]
E (BRSNS) ([2]; dosage 25 g/ha): >5
E (ZEAMX) ([1]; dosage 25 g/ha): >5
E (TRZAS) ([3]; dosage 25 g/ha): >5

COCC(C)NC(=O)c1cc(C)c(C(F)(F)C(F)(F)F)[nH]c1=O (centres unmarked) [compound 272]
E (TRZAS) ([3]; dosage 25 g/ha): >5

COCCCNC(=O)c1cc(C)c(C(F)(F)C(F)(F)F)[nH]c1=O [compound 274]
E (TRZAS) ([3]; dosage 250 g/ha): >5

CCc1cc(C(=O)NCC(=O)OC)c(=O)[nH]c1C(F)(F)F [compound 610]
E (ZEAMX) ([1]; dosage 25 g/ha): >5

CCc1cc(C(=O)NC(C)C)c(=O)[nH]c1C(F)(F)C(F)(F)F [compound 664]
E (ZEAMX) ([1]; dosage 25 g/ha): >5

CCc1cc(C(=O)NC2CC2)c(=O)[nH]c1C(F)(F)C(F)(F)F [compound 665, N-Cyclopropyl-5-ethyl-2-oxo-6-(pentafluoroethyl)-1,2-dihydropyridine-3-carboxamide]
E (BRSNS) ([2]; dosage 250 g/ha): >5

CCc1cc(C(=O)NC(C)CC(C)C)c(=O)[nH]c1C(F)(F)C(F)(F)F (centres unmarked) [compound 696]
E (ZEAMX) ([1]; dosage 25 g/ha): >5

CCc1cc(C(=O)N(C)CC(=O)OC)c(=O)[nH]c1C(F)(F)C(F)(F)F [compound 770]
E (TRZAS) ([3]; dosage 25 g/ha): >5

CCc1cc(C(=O)NC2CCC2)c(=O)[nH]c1C(F)(F)Cl [compound 777]
E (ZEAMX) ([1]; dosage 25 g/ha): >5

CCc1cc(C(=O)NCC(OC)OC)c(=O)[nH]c1C(F)(F)Cl [compound 813]
E (BRSNS) ([2]; dosage 25 g/ha): >5

CCc1cc(C(=O)NC(C)CN(C)C)c(=O)[nH]c1C(F)(F)C(F)(F)Cl (centres unmarked) [compound 933]
E (BRSNS) ([2]; dosage 25 g/ha): >5
E (TRZAS) ([3]; dosage 250 g/ha): >5

CCCc1cc(C(=O)NCCCOC)c(=O)[nH]c1C(F)(F)C(F)(F)F [compound 1154]
E (BRSNS) ([2]; dosage 250 g/ha): >5

CCCc1cc(C(=O)NCC(=O)OC)c(=O)[nH]c1C(F)(F)C(F)(F)F [compound 1159]
E (ZEAMX) ([1]; dosage 250 g/ha): >5

CCNC(=O)c1cc(Cl)c(C(F)(F)F)[nH]c1=O [compound 1212]
E (ZEAMX) ([1]; dosage 25 g/ha): >5

C=CCNC(=O)c1cc(Cl)c(C(F)(F)C(F)(F)Cl)[nH]c1=O [compound 1565]
E (BRSNS) ([2]; dosage 250 g/ha): >5

CC(C)C(C)NC(=O)c1cc(Cl)c(C(F)(F)C(F)(F)Cl)[nH]c1=O (centres unmarked) [compound 1578]
E (ZEAMX) ([1]; dosage 250 g/ha): >5

CC(C)C(C)NC(=O)c1cc(Cl)c(C(F)(F)Cl)[nH]c1=O (centres unmarked) [compound 1688]
E (BRSNS) ([2]; dosage 250 g/ha): >5

CCOC(=O)C1CCCCN1C(=O)c1cc(Cl)c(C(F)(F)Cl)[nH]c1=O (centres unmarked) [compound 1744, 1-({5′-chloro-6′-[chloro(difluoro)methyl]-2′-oxo-1′,2′-dihydropyridin-3′-yl}carbonyl)-piperidine-2-carboxylic acid ethyl ester]
E (BRSNS) ([2]; dosage 25 g/ha): >5

C=CCNC(=O)c1cc(Br)c(C(F)(F)F)[nH]c1=O [compound 1785]
E (BRSNS) ([2]; dosage 50 g/ha): >5

CC(C)CC(C)NC(=O)c1cc(Br)c(C(F)(Cl)C(F)(F)F)[nH]c1=O (centres unmarked) [compound 2016]
E (BRSNS) ([2]; dosage 25 g/ha): >5

CCC(CC)NC(=O)c1cc(Br)c(C(F)(Cl)C(F)(F)F)[nH]c1=O (centres unmarked) [compound 2020]
E (BRSNS) ([2]; dosage 25 g/ha): >5

CN(C)C(=O)c1cc(Br)c(C(F)(Cl)C(F)(F)F)[nH]c1=O (centres unmarked) [compound 2085]
E (ZEAMX) ([1]; dosage 250 g/ha): >5

CNC(=O)c1cc(I)c(C(F)(F)F)[nH]c1=O [compound 2220]
E (BRSNS) ([2]; dosage 25 g/ha): >5

COCCCNC(=O)c1cc(I)c(C(F)C(F)(F)F)[nH]c1=O (centres unmarked) [compound 2233]
E (BRSNS) ([2]; dosage 25 g/ha): >5

Cc1cc(C(=O)NC(C)CC(C)C)c(=O)[nH]c1C(F)(Cl)C(F)(F)F (centres unmarked) [compound 2246]
E (BRSNS) ([2]; dosage 25 g/ha): >5

Cc1cc(C(=O)NC(C)C(F)(F)F)c(=O)[nH]c1C(F)(F)C(F)(F)C(F)(F)F (centres unmarked) [compound 2251]
E (BRSNS) ([2]; dosage 250 g/ha): >5

CCCNC(=O)c1cc(Cl)c(C)[nH]c1=O [compound 2270]
E (ZEAMX) ([1]; dosage 25 g/ha): >5

Cc1[nH]c(=O)c(C(=O)NCCC(C)C)cc1Cl [compound 2290]
E (ZEAMX) ([1]; dosage 250 g/ha): >5

COCCNC(=O)c1cc(Br)c(C)[nH]c1=O [compound 2423]
E (ZEAMX) ([1]; dosage 2.5 g/ha): >5

CCc1[nH]c(=O)c(C(=O)N(C)CC(=O)OC)cc1C [compound 2817]
E (ZEAMX) ([1]; dosage 25 g/ha): >5

CCc1[nH]c(=O)c(C(=O)NCCC(C)C)cc1C [compound 2840]
E (TRZAS) ([3]; dosage 250 g/ha): >5

CCNC(=O)c1cc(Cl)c(CC)[nH]c1=O [compound 3149]
E (TRZAS) ([3]; dosage 25 g/ha): >5

CCc1[nH]c(=O)c(C(=O)NCCC(C)C)cc1Cl [compound 3170]
E (TRZAS) ([3]; dosage 25 g/ha): >5

CCCc1[nH]c(=O)c(C(=O)NC(C)COC)cc1CC (centres unmarked) [compound 3639]
E (TRZAS) ([3]; dosage 25 g/ha): >5

CCCc1[nH]c(=O)c(C(=O)NCC)cc1Cl [compound 3699]
E (TRZAS) ([3]; dosage 25 g/ha): >5

CCCc1[nH]c(=O)c(C(=O)N(C)CC(=O)OC)cc1Br [compound 3807]
E (TRZAS) ([3]; dosage 25 g/ha): >5

CCCc1[nH]c(=O)c(C(=O)N(C)CC(=O)OC)cc1I [compound 3917]
E (TRZAS) ([3]; dosage 25 g/ha): >5

CCCNC(=O)c1cc(I)c(CCC)[nH]c1=O [compound 3920]
E (ZEAMX) ([1]; dosage 25 g/ha): >5
E (TRZAS) ([3]; dosage 25 g/ha): >5

CCCc1[nH]c(=O)c(C(=O)NCCC(C)C)cc1I [compound 3940]
E (ZEAMX) ([1]; dosage 25 g/ha): >5
E (TRZAS) ([3]; dosage 25 g/ha): >5

COC(=O)CN(C)C(=O)c1cc(C)c(C)[nH]c1=O [compound 4027]
E (TRZAS) ([3]; dosage 250 g/ha): >5
